Values of other authors, collected in patent publication US20220151901A1, “A METHOD OF COLORING KERATINOUS MATERIAL COMPRISING THE USE OF AN ORGANOSILICON COMPOUND, A COLORING COMPOUND, AND A MIXTURE OF SILICONES” (Henkel AG & Co. KGaA, priority 2019, published 2022).

Conditions: 25° C.

solubility in water (in words)	Compound	solubility in water
	CCN(Cc1cccc(S(=O)(=O)[O-])c1)c1ccc(C(=C2C=CC(=[N+](CC)Cc3cccc(S(=O)(=O)[O-])c3)C=C2)c2ccccc2S(=O)(=O)[O-])cc1.[Na+].[Na+] [Acid Blue 9]	more than 20 % by weight
	Nc1cc(S(=O)(=O)[O-])cc2cc(S(=O)(=O)[O-])c(N=Nc3ccccc3)c(O)c12.[Na+].[Na+] [Acid Red 33, disodium salt of 5-amino-4-hydroxy-3-(phenylazo)-naphthalene-2,7-disulphonate]	2.5 g/L
highly soluble	O=C([O-])C1=NN(c2ccc(S(=O)(=O)[O-])cc2)C(=O)C1N=Nc1ccc(S(=O)(=O)[O-])cc1.[Na+].[Na+].[Na+] (centres unmarked) [Acid Yellow 23, trisodium salt of 4,5-dihydro-5-oxo-1-(4-sulfophenyl)-4-((4-sulfophenyl)azo)-1H-pyrazole-3-carboxylic acid]	
	O=C([O-])c1c(Cl)c(Cl)c(Cl)c(Cl)c1-c1c2c(Br)cc(=O)c(Br)c-2oc2c(Br)c(O)cc(Br)c12.O=C([O-])c1c(Cl)c(Cl)c(Cl)c(Cl)c1-c1c2c(Br)cc(=O)c(Br)c-2oc2c(Br)c(O)cc(Br)c12.[Na+].[Na+] [Acid Red 92, disodium salt of 3,4,5,6-tetrachloro-2-(1,4,5,8-tetrabromo-6-hydroxy-3-oxoxanthen-9-yl)benzoic acid]	greater than 10 g/L
	O=S(=O)([O-])c1ccc(N=Nc2c(O)ccc3ccccc23)cc1.[Na+] [Acid Orange 7, sodium salt of 4-[(2-hydroxy-1-naphthyl)azo]benzene sulphonate]	more than 7 g/L
